Assay: Electrophysiological Assay : The following patch voltage clamp electrophysiology studies were performed on representative compounds of the invention using human embryonic kidney cells (HEK), permanently transfected with an expression vector containing the full-length cDNA coding for the desired human sodium channel α-subunit, grown in culture media containing 10% FBS, 1% PSG, and 0.5 mg/mL G418 at 37° C. with 5% CO2. […] Nav1.7 and Nav1.5 cDNAs (NM_002977 and AC137587; SCN5A, respectively) were stably expressed in HEK-293 cells. The β1 subunit was coexpressed only in the Nav1.7 cell line.
Assay type: cell-based

O=S(=O)(Nc1ncns1)c1cc(F)c(OC[C@@H]2CNCC[C@H]2c2ccc(F)c(C(F)(F)F)c2)cc1F (relative stereo)
IC50: 71 nM

— ChEMBL document CHEMBL5726194, “Benzenesulfonamide compounds and their use as therapeutic agents” (2017)
